According to patent US20250214991A1 (Oncopia Therapeutics, Inc. d/b/a/ SK Life Science Labs, priority 2022, published 2025):

Key:
IKZF2 = IKZF2 (Homo sapiens (Human), UniProt Q96SW2+Q9UKS7); assay: In vitro IKZF2 HiBit Assay (HEK293T Flp-in-HiBiT cells); assay type: cell-based; settings: HEK293T Flp-in-HiBiT cells, 6 hrs incubation; for DC50: read-out: IKZF2 HiBit DC50; for Dmax: HEK-293T, read-out: IKZF2 HiBit Dmax (%)
Protocol: In Vitro IKZF2 HiBit Assay
The HiBiT protein tagging system was applied to modified HEK293T Flp-in-HiBiT cells (polyclone) via a CRISPR/Cas9-mediated insertion of the HiBiT peptide tag (Promega™) to the N-terminus of the IKZF2 gene locus (Neon™ transfection system). Test and reference compounds are diluted from 1 mM at 3 folds for 11 doses. 25 nL of diluted compound is transfered to assay plates (Corning3570) using ECHO550, the final DMSO concentration @ 0.1%. The cells are seeded in 3000/25 μL/well to compound plates. It is then incubated for 6 hrs in TC incubator. The amount of Nano-Glo® HiBiT lytic reagent needed to perform the desired experiments is calculated. The Nano-Glo® HiBiT lytic reagent is brought to room temperature. The LgBiT protein is diluted to 1:100 and the Nano-Glo® HiBiT lytic substrate is diluted to 1:50 into an appropriate volume of room temperature Nano-Glo® HiBiT lytic buffer. 15 μL of the detection reagent (or without LgBiT) is dispensed to corresponding well according to the layout. The plate is then shaked for 10 mins at room temperature. After briefly centrifuge, the plate is read on Envision. At the indicated timepoints, the Nano-Glo® HiBiT lytic detection system (Promega™) was utilized for detecting bioluminescence of the HiBiT tag in treated cells: abundance of the tag is proportionate to the level of luminescence. Following normalization to DMSO, dose-response curves were plotted (GraphPad Prism) to determine the concentration points at which 50% of HiBiT-Helios degradation was achieved by each compound. The extent of degradation (range of luminescence) from the highest to lowest concentration points was calculated to determine the Dmax.
(§1) DC50, A: <1 nM; B: 1-10 nM; C: 10-100 nM; D: 100-1000 nM; E: 1000-10000 nM; F: >10,000 nM. Dmax, A: >80%; B: 60-80%; C: 40-60%; D: 20-40%; E: <20%.

IKZF1 = IKZF1 (Homo sapiens (Human), UniProt Q13422+Q96SW2); assay: In vitro IKZF1 HiBit Assay (HEK293T Flp-in-HiBiT-IKZF1 stable cell line); assay type: cell-based; settings: HEK293T Flp-in-HiBiT-IKZF1 stable cell line, 6 hrs incubation; for DC50: read-out: IKZF1 HiBit DC50; for Dmax: HEK-293T, read-out: IKZF1 HiBit Dmax (%)
Protocol: In Vitro IKZF1 HiBit Assay
The HiBiT protein tagging system was applied to modified Cells: modified HEK293T Flp-in-HiBiT-IKZF1 stable cell line (polyclone) via a CRISPR/Cas9-mediated insertion of the HiBiT peptide tag (Promega™) to the N-terminus of the […] gene locus (Neon™ transfection system).
25 nL of diluted compound is transferred to assay plates (Corning3571) using ECHO550, the final DMSO concentration @ 0.1%. The cells are seeded in 3000/25 μL/well to compound plates. The plates are incubated for 6 hrs in TC incubator. The amount of Nano-Glo® HiBiT lytic reagent needed to perform the desired experiments is calculated. The Nano-Glo® HiBiT lytic reagent is brought to room temperature. The LgBiT protein is diluted to 1:100 and the Nano-Glo® HiBiT lytic substrate is brought to 1:50 into an appropriate volume of room temperature Nano-Glo® HiBiT lytic buffer. 15 μL of the detection reagent (or without LgBiT) is dispensed to corresponding well according to the layout. The plate is shaked for 10 mins at room temperature. After briefly centrifuge, the plateis read on Envision. At the indicated timepoints, the Nano-Glo® HiBiT lytic detection system (Promega™) was utilized for detecting bioluminescence of the HiBiT tag in treated cells: abundance of the tag is proportionate to the level of luminescence. Following normalization to DMSO, dose-response curves were plotted (GraphPad Prism) to determine the concentration points at which 50% of HiBiT-Ikaros degradation was achieved by each compound. The extent of degradation (range of luminescence) from the highest to lowest concentration points was calculated to determine the Dmax.
as §1

IKZF2, sequence (Q9UKS7 whole entry): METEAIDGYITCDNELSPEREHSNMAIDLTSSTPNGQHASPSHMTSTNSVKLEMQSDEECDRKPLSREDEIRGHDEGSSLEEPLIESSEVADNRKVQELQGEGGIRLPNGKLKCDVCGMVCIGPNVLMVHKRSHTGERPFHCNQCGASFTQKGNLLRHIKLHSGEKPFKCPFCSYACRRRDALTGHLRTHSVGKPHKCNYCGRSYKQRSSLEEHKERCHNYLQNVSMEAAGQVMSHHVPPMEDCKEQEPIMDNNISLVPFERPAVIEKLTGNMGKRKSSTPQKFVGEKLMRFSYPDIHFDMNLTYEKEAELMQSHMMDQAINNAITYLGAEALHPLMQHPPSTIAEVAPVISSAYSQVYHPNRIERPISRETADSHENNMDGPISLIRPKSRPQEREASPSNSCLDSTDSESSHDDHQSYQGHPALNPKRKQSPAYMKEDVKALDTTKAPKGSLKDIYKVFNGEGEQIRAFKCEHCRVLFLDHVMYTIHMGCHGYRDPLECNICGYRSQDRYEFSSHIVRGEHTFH
IKZF2, sequence (Q96SW2 whole entry): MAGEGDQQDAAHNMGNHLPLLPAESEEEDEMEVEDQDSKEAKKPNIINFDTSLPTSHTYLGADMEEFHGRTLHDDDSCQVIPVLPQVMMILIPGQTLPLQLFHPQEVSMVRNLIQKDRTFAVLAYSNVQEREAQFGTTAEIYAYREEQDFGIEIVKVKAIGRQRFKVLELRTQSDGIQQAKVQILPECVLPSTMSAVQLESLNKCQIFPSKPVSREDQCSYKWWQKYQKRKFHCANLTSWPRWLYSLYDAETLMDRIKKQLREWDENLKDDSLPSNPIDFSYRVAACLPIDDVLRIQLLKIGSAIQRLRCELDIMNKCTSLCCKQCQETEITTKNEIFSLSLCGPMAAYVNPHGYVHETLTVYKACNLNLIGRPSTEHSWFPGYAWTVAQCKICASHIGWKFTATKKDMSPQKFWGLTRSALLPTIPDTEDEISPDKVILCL
IKZF2, sequence (Q16531 2-1140 partner): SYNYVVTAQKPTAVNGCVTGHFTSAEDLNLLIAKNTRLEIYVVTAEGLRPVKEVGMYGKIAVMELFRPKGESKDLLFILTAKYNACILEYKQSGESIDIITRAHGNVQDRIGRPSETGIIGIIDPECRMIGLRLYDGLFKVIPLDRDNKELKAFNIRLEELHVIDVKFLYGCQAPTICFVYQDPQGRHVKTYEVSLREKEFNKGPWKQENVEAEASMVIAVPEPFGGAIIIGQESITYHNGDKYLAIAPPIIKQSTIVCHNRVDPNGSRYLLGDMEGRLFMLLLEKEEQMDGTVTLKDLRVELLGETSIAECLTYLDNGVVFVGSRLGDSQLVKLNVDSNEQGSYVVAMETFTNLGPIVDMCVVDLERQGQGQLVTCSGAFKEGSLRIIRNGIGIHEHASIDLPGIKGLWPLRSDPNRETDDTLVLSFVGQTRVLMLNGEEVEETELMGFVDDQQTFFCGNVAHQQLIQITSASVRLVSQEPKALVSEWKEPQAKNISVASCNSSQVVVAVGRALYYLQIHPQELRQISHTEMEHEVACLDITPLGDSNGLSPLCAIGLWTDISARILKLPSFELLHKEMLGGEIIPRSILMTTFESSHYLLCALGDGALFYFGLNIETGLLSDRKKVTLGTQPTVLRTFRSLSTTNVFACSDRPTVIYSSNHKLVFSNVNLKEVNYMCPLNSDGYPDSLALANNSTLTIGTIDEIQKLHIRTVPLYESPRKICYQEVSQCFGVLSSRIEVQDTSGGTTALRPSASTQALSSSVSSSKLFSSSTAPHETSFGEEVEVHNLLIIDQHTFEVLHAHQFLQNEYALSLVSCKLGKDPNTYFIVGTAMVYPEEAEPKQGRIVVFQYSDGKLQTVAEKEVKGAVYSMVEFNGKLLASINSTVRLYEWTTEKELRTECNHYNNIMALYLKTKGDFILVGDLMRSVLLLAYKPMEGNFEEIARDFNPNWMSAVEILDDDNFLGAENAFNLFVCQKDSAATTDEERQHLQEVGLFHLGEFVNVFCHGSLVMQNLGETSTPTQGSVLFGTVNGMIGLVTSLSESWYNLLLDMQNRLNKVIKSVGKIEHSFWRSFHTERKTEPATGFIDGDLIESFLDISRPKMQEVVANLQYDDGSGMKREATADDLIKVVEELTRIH
IKZF1, sequence (Q13422 whole entry): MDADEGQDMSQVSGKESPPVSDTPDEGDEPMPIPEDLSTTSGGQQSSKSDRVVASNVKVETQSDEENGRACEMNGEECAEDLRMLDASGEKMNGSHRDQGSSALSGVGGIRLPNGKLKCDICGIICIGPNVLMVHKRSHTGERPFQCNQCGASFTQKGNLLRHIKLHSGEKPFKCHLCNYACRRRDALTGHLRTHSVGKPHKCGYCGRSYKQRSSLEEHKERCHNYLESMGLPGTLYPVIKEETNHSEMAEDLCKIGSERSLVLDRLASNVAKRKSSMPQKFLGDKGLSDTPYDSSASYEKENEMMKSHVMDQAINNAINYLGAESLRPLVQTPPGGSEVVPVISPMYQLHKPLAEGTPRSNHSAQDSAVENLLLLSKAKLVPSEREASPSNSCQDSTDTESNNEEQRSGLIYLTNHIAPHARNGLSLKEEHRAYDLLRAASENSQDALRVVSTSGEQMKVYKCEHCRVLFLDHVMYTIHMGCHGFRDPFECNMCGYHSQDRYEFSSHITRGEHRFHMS
IKZF1, sequence (Q96SW2 whole entry): as the sequence (Q96SW2 whole entry) above
IKZF1, sequence (Q16531 2-1140 partner): as the sequence (Q16531 2-1140 partner) above

O=C1CCC(N2Cc3cc(-c4cc(CN5CCCC5C(F)(F)F)c5ccn(C6COC6)c5n4)ccc3C2=O)C(=O)N1 (centres unmarked) [Example 253, 3-(5-(1-(oxetan-3-yl)-4-((2-(trifluoromethyl)pyrrolidin-1-yl)methyl)-1H-pyrrolo[2,3-b]pyridin-6-yl)-1-oxoisoindolin-2-yl) piperidine-2,6-dione]
DC50 (IKZF2): 10 to 100 nM
Dmax (IKZF2): 40 to 60%
DC50 (IKZF1): > 10 µM
Dmax (IKZF1): < 20%

CC(=O)N1CC(n2ccc3c(CN4CCCC4)cc(-c4ccc5c(c4)CN(C4CCC(=O)NC4=O)C5=O)nc32)C1 (centres unmarked) [Example 256, 3-(5-(1-(1-acetylazetidin-3-yl)-4-(pyrrolidin-1-ylmethyl)-1H-pyrrolo[2,3-b]pyridin-6-yl)-1-oxoisoindolin-2-yl) piperidine-2,6-dione]
DC50 (IKZF2): 10 to 100 nM
Dmax (IKZF2): > 80%
DC50 (IKZF1): > 10 µM
Dmax (IKZF1): < 20%

O=C1CCC(N2Cc3cc(-c4cc(CN5CCCC5CF)c5ccn(C6COC6)c5n4)ccc3C2=O)C(=O)N1 (centres unmarked) [Example 257, 3-(5-(4-((2-(fluoromethyl)pyrrolidin-1-yl)methyl)-1-(oxetan-3-yl)-1H-pyrrolo[2,3-b]pyridin-6-yl)-1-oxoisoindolin-2-yl) piperidine-2,6-dione]
DC50 (IKZF2): 1 to 10 nM
Dmax (IKZF2): > 80%
DC50 (IKZF1): 0.001 to 0.01 µM
Dmax (IKZF1): 20 to 40%

Cc1nc2c(CN3CCCC3)cc(-c3ccc4c(c3)CN(C3CCC(=O)NC3=O)C4=O)nc2n1C1COC1 (centres unmarked) [Example 258, 3-(5-(2-methyl-3-(oxetan-3-yl)-7-(pyrrolidin-1-ylmethyl)-3H-imidazo[4,5-b]pyridin-5-yl)-1-oxoisoindolin-2-yl) piperidine-2,6-dione]
DC50 (IKZF2): 10 to 100 nM
Dmax (IKZF2): 60 to 80%
DC50 (IKZF1): > 10 µM
Dmax (IKZF1): < 20%

Cc1cc(-c2ccc3c(c2)CN(C2CCC(=O)NC2=O)C3=O)nc2c1nc(CN1CCCC1)n2C1COC1 (centres unmarked) [Example 259, 3-(5-(7-methyl-3-(oxetan-3-yl)-2-(pyrrolidin-1-ylmethyl)-3H-imidazo[4,5-b]pyridin-5-yl)-1-oxoisoindolin-2-yl) piperidine-2,6-dione]
DC50 (IKZF2): > 10000 nM
Dmax (IKZF2): < 20%
DC50 (IKZF1): > 10 µM
Dmax (IKZF1): < 20%

CCc1c(-c2ccc3c(c2)CN(C2CCC(=O)NC2=O)C3=O)nc2c(ccn2C2COC2)c1CN1CCCC1 (centres unmarked) [Example 262, 3-(5-(5-ethyl-1-(oxetan-3-yl)-4-(pyrrolidin-1-ylmethyl)-1H-pyrrolo[2,3-b]pyridin-6-yl)-1-oxoisoindolin-2-yl) piperidine-2,6-dione]
DC50 (IKZF2): 1 to 10 nM
Dmax (IKZF2): 60 to 80%
DC50 (IKZF1): > 10 µM
Dmax (IKZF1): < 20%

Cn1cnc(-n2ccc3c(CN4CCCC4)cc(-c4ccc5c(c4)CN([C@H]4CCC(=O)NC4=O)C5=O)nc32)c1 [Example 263, (S)-3-(5-(1-(1-methyl-1H-imidazol-4-yl)-4-(pyrrolidin-1-ylmethyl)-1H-pyrrolo[2,3-b]pyridin-6-yl)-1-oxoisoindolin-2-yl) piperidine-2,6-dione]
DC50 (IKZF2): 1 to 10 nM
Dmax (IKZF2): 40 to 60%
DC50 (IKZF1): > 10 µM
Dmax (IKZF1): < 20%

O=C1CC[C@H](N2Cc3cc(-c4cc(CN5CCCC5)c5ccn(-c6ncco6)c5n4)ccc3C2=O)C(=O)N1 [Example 267, (S)-3-(5-(1-(oxazol-2-yl)-4-(pyrrolidin-1-ylmethyl)-1H-pyrrolo[2,3-b]pyridin-6-yl)-1-oxoisoindolin-2-yl) piperidine-2,6-dione]
DC50 (IKZF2): 1 to 10 nM
Dmax (IKZF2): 60 to 80%
DC50 (IKZF1): > 10 µM
Dmax (IKZF1): < 20%

O=C1CC[C@H](N2Cc3cc(-c4cc(CN5CCCC5)c5ccn(-c6cn[nH]c6)c5n4)ccc3C2=O)C(=O)N1 [Example 271, (S)-3-(5-(1-(1H-pyrazol-4-yl)-4-(pyrrolidin-1-ylmethyl)-1H-pyrrolo[2,3-b]pyridin-6-yl)-1-oxoisoindolin-2-yl) piperidine-2,6-dione]
DC50 (IKZF2): 1 to 10 nM
Dmax (IKZF2): > 80%
DC50 (IKZF1): 0.1 to 1 µM
Dmax (IKZF1): 20 to 40%

O=C1CCC(N2Cc3cc(-c4cc(CN5CCCC5)c5ccn(C6COC6)c5n4)c(Cl)cc3C2=O)C(=O)N1 (centres unmarked) [Example 273, 3-(6-chloro-5-(1-(oxetan-3-yl)-4-(pyrrolidin-1-ylmethyl)-1H-pyrrolo[2,3-b]pyridin-6-yl)-1-oxoisoindolin-2-yl) piperidine-2,6-dione]
DC50 (IKZF2): > 10000 nM
Dmax (IKZF2): < 20%
DC50 (IKZF1): > 10 µM
Dmax (IKZF1): < 20%

COCCOc1ccnc2c(CN3CCCC3)cc(-c3ccc4c(c3)CN(C3CCC(=O)NC3=O)C4=O)nc12 (centres unmarked) [Example 278, 3-(5-(8-(2-methoxyethoxy)-4-(pyrrolidin-1-ylmethyl)-1,5-naphthyridin-2-yl)-1-oxoisoindolin-2-yl) piperidine-2,6-dione]
DC50 (IKZF2): > 10000 nM
Dmax (IKZF2): < 20%
DC50 (IKZF1): > 10 µM
Dmax (IKZF1): < 20%

CC(Oc1ccnc2c(CN3CCCC3)cc(-c3ccc4c(c3)CN(C3CCC(=O)NC3=O)C4=O)nc12)C(F)(F)F (centres unmarked) [Example 279, 3-(1-oxo-5-(4-(pyrrolidin-1-ylmethyl)-8-((1,1,1-trifluoropropan-2-yl)oxy)-1,5-naphthyridin-2-yl)isoindolin-2-yl) piperidine-2,6-dione]
DC50 (IKZF2): 1 to 10 nM
Dmax (IKZF2): 60 to 80%
DC50 (IKZF1): > 10 µM
Dmax (IKZF1): < 20%

CO[C@H]1C[C@@H](Oc2ccnc3c(CN4CCCC4)cc(-c4ccc5c(c4)CN(C4CCC(=O)NC4=O)C5=O)nc23)C1 (some centres unmarked) [Example 281, 3-(5-(8-((1s,3s)-3-methoxycyclobutoxy)-4-(pyrrolidin-1-ylmethyl)-1,5-naphthyridin-2-yl)-1-oxoisoindolin-2-yl) piperidine-2,6-dione]
DC50 (IKZF2): 10 to 100 nM
Dmax (IKZF2): 60 to 80%
DC50 (IKZF1): > 10 µM
Dmax (IKZF1): < 20%

O=C1CCC(N2Cc3cc(-c4cc(CN5CCCC5)c5nccc(OCCO)c5n4)ccc3C2=O)C(=O)N1 (centres unmarked) [Example 285, 3-(5-(8-(2-hydroxyethoxy)-4-(pyrrolidin-1-ylmethyl)-1,5-naphthyridin-2-yl)-1-oxoisoindolin-2-yl) piperidine-2,6-dione]
DC50 (IKZF2): 1 to 10 nM
Dmax (IKZF2): 20 to 40%
DC50 (IKZF1): > 10 µM
Dmax (IKZF1): < 20%

CC(C)Nc1n[nH]c2c(CN3CCC(F)C3)cc(-c3ccc4c(c3F)CN(C3CCC(=O)NC3=O)C4=O)nc12 (centres unmarked) [Example 286]
DC50 (IKZF2): 1 to 10 nM
Dmax (IKZF2): 60 to 80%
DC50 (IKZF1): > 10 µM
Dmax (IKZF1): < 20%

CC(C)Nc1n[nH]c2c(CN3CC4(COC4)C3)cc(-c3ccc4c(c3F)CN(C3CCC(=O)NC3=O)C4=O)nc12 (centres unmarked) [Example 287, 3-(5-(7-((2-oxa-6-azaspiro[3.3]heptan-6-yl)methyl)-3-(isopropylamino)-1H-pyrazolo[4,3-b]pyridin-5-yl)-4-fluoro-1-oxoisoindolin-2-yl) piperidine-2,6-dione]
DC50 (IKZF2): 10 to 100 nM
Dmax (IKZF2): 60 to 80%
DC50 (IKZF1): 0.1 to 1 µM
Dmax (IKZF1): 20 to 40%

CC(C)Nc1n[nH]c2c(CN3CCCC3)cc(-c3ccc4c(c3)CN(C3(C)CCC(=O)NC3=O)C4=O)nc12 (centres unmarked) [Example 294, 3-(5-(3-(isopropylamino)-7-(pyrrolidin-1-ylmethyl)-1H-pyrazolo[4,3-b]pyridin-5-yl)-1-oxoisoindolin-2-yl)-3-methylpiperidine-2,6-dione]
DC50 (IKZF2): 1000 to 10000 nM
Dmax (IKZF2): 20 to 40%
DC50 (IKZF1): > 10 µM
Dmax (IKZF1): < 20%
